Values quoted from earlier work, collected in patent US20050142187A1, “Enhanced absorption of modified release dosage forms” (priority 2003, published 2005).

Window of absorption (known in the art, "or less"): 3 to 4 h
SMILES: CC1(C)S[C@@H]2[C@H](NC(=O)[C@H](N)c3ccc(O)cc3)C(=O)N2[C@H]1C(=O)O [Amoxicillin, amoxicillin]
Food effect (current scientific literature): either a negligible or a negative food effect
